pKi: −log10 of the molar value.
Columns and labels:
[1] = molecular target: T1, Human Neuropeptide Y2 Receptor (Homo sapiens, UniProt P49146); assay: Radioligand binding competition assay (RLB); settings: Table 3, 125I-PYY(1-36) competition; read-out: Ki
T1 construct: purchased CHEMICON HTS066M
T1 sequence (P49146 1-381): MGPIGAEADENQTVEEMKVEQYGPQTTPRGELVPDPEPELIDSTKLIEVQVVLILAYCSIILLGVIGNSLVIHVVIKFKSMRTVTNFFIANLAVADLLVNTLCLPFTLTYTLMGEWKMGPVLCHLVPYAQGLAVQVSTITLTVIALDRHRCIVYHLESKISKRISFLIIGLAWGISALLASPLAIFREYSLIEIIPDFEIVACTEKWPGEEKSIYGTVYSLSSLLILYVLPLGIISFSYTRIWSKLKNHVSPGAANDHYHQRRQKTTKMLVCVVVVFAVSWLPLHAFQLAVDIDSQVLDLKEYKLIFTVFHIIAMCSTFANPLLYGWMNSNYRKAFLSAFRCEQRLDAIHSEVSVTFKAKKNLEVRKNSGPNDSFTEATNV
How it was run: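 Peptides were serially diluted from 1 mM DMSO stocks and competed for radioligand binding to receptor membranes (0.5 μg/well) over 2 h at room temperature, pH 7.4 HEPES buffer. Bound radioactivity on filters was counted by scintillation, and IC50 was derived by nonlinear regression.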

Solubility determination = settings: for Sol6: pH 6; for Sol7: pH 7
How it was run: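 First, TFA-salt peptide was added to 0.1 M sodium diphosphate (pH 6.4 or 7.0) to 10 mg/ml and shaken 2 h at room temperature. Next, insoluble material was filtered off. Finally, filtrate and control, each 1 mg/ml in 50% acetonitrile, were compared by reversed-phase chromatography.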

pKi [1]	Sol6 (Solubility determination) [mg/mL]	Sol7 (Solubility determination) [mg/mL]	Compound
8.59	9.6	9.7	CC(C)CC(=O)N[C@@H](C)C(=O)N1CCC[C@H]1C(=O)N[C@@H](CCC(=O)O)C(=O)N[C@@H](CCCCNC(=O)CCCCCNC(=O)CC[C@H](NC(=O)CCCCCCCCCCCCCCCCC(=O)O)C(=O)O)C(=O)N1CCC[C@H]1C(=O)N[C@@H](CCC(=O)O)C(=O)N[C@@H](CCC(=O)O)C(=O)N[C@@H](CC(=O)O)C(=O)N[C@@H](C)C(=O)N[C@H](C(=O)N1CCC[C@H]1C(=O)N[C@@H](CCC(=O)O)C(=O)N[C@@H](CCC(=O)O)C(=O)N[C@@H](CC(C)C)C(=O)N[C@@H](CCC(N)=O)C(=O)N[C@@H](CCCNC(=N)N)C(=O)N[C@@H](Cc1ccc(O)cc1)C(=O)N[C@@H](Cc1ccc(O)cc1)C(=O)N[C@H](C(=O)N[C@@H](CCC(N)=O)C(=O)N[C@@H](CC(C)C)C(=O)N[C@@H](CCCNC(=N)N)C(=O)N[C@@H](Cc1c[nH]cn1)C(=O)N[C@@H](Cc1ccc(O)cc1)C(=O)N[C@@H](Cc1ccc(O)cc1)C(=O)N[C@@H](CC(N)=O)C(=O)N[C@@H](Cc1c[nH]c2ccccc12)C(=O)N[C@@H](CC(C)C)C(=O)N[C@H](C(=O)N[C@@H](CCCNC(=N)N)C(=O)N[C@@H](CCC(N)=O)C(=O)N[C@@H](CCCNC(=N)N)C(=O)N[C@@H](Cc1ccc(O)cc1)C(N)=O)[C@@H](C)O)C(C)C)[C@@H](C)O [Compound 51, N{alpha-4}-(3-methylbutanoyl)-N{epsilon-7}-(6-[(4S)-4-carboxy-4-(17-carboxyheptadecanamido)butanamido]hexanoyl)-[4A,7K,9E,13T,18Q,22V,23Q,28Y,30W,31L]-hPYY(4-36)]
8.30	9.7	9.8	CC(C)CC(=O)N[C@@H](C)C(=O)N1CCC[C@H]1C(=O)N[C@@H](CCC(=O)O)C(=O)N[C@@H](CCCCNC(=O)CCCCCNC(=O)CC[C@H](NC(=O)CCCCCCCCCCCCCCCCC(=O)O)C(=O)O)C(=O)N1CCC[C@H]1C(=O)N[C@@H](CCC(=O)O)C(=O)N[C@@H](CCC(=O)O)C(=O)N[C@@H](CC(=O)O)C(=O)N1CCC[C@H]1C(=O)N[C@H](C(=O)N1CCC[C@H]1C(=O)N[C@@H](CCC(=O)O)C(=O)N[C@@H](CCC(=O)O)C(=O)N[C@@H](CC(C)C)C(=O)N[C@@H](CCC(N)=O)C(=O)N[C@@H](CCCNC(=N)N)C(=O)N[C@@H](Cc1ccc(O)cc1)C(=O)N[C@@H](Cc1ccc(O)cc1)C(=O)N[C@H](C(=O)N[C@@H](CO)C(=O)N[C@@H](CC(C)C)C(=O)N[C@@H](CCCNC(=N)N)C(=O)N[C@@H](Cc1c[nH]cn1)C(=O)N[C@@H](Cc1ccc(O)cc1)C(=O)N[C@@H](Cc1ccc(O)cc1)C(=O)N[C@@H](CC(N)=O)C(=O)N[C@@H](Cc1c[nH]c2ccccc12)C(=O)N[C@@H](CC(C)C)C(=O)N[C@H](C(=O)N[C@@H](CCCNC(=N)N)C(=O)N[C@@H](CCC(N)=O)C(=O)N[C@@H](CCCNC(=N)N)C(=O)N[C@@H](Cc1ccc(O)cc1)C(N)=O)[C@@H](C)O)C(C)C)[C@@H](C)O [Compound 22, N{alpha-4}-(3-methylbutanoyl)-N{epsilon-7}-(6-[(4S)-4-carboxy-4-(17-carboxyheptadecanamido)butanamido]hexanoyl)[4A,7K,9E,12P,13T,18Q,22V,28Y,30W,31L]-hPYY(4-36)]

Reference: patent publication US12391737B2, “Soluble NPY2 receptor agonists” (Boehringer Ingelheim International GmbH, priority 2020, dated 2025)
